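A five-concentration, 48-hour dose response in 96-well plates underlies each endpoint, interpolated linearly between surrounding concentrations. GI50 is the concentration that inhibits growth by half. Definition used: TGI = concentration required for complete inhibition of growth.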
Experiments:
Experiment in all cases: inhibition of tumour cell growth, NCI panel, 48 h
[1] = tested on: CCRF-CEM leukemia
[2] = tested on: HOP-62 NSCLC
[3] = tested on: SF-539 CNS
[4] = tested on: NCI-H522 lung
[5] = tested on: ACHN renal
[6] = tested on: HOP-92 NSCLC
[7] = tested on: U251 CNS
[8] = tested on: OVCAR-5 ovarian
[9] = tested on: SF-295 CNS
[10] = tested on: K-562 leukemia

Row | SMILES | TGI [1] [µM] | TGI [2] [µM] | TGI [3] [µM] | TGI [4] [µM] | TGI [5] [µM] | TGI [6] [µM] | TGI [7] [µM] | TGI [8] [µM] | TGI [9] [µM] | TGI [10] [µM] | GI50 [2] [µM] | GI50 [3] [µM] | GI50 [4] [µM] | GI50 [5] [µM] | GI50 [6] [µM] | GI50 [7] [µM] | GI50 [8] [µM] | GI50 [9] [µM] | GI50 [10] [µM] | GI50 [1] [µM]
1 | [O-][n+]1c2cc(CN3CCOCC3)c(CN3CCOCC3)cc2[n+]([O-])c2c(O)cccc21 | 4.02 | 15.8 | 2.82 | 6.23 | 26.3 | 10.4 | 7.09 | 15.2 | 2.16 |  |  |  |  |  |  |  |  |  |  | 
2 | COc1ccc(OC)c(/C=N/N=C2\C(=O)Nc3c(Cl)cc(Cl)cc32)c1 | > 100 | 79.4 | > 100 |  | > 100 | > 100 | > 100 | > 100 | > 100 | > 100 |  |  |  |  |  |  |  |  |  | 
3 | C=C(C)C(=O)O[C@H]1CC2=CC(CC(C)=C[C@H]3OC(=O)C(=C)C13)OC2=O (some centres not stated) | 17.9 |  | > 100 | 17 | 27.6 | 32.4 | > 100 | > 100 | > 100 | 22.5 |  |  |  |  |  |  |  |  |  | 
4 | O=c1[nH]c2c(c3ccccc13)CCc1ccccc1-2 |  |  | > 100 | > 100 | > 100 |  | > 100 | > 100 | > 100 | > 100 |  |  |  |  |  |  |  |  |  | 
5 | O=CN1N=C(c2ccc(Nc3ccnc4cc(Cl)ccc34)cc2)CC1c1ccc(Cl)cc1 (configuration not stated) |  | > 100 | > 100 | 30.2 | > 100 | > 100 | > 100 | > 100 | 1.08 |  | 0.859 | 0.575 | 0.386 | 1 | > 100 | 0.511 | 6.46 | 0.274 |  | 
6 | CN(C)CC1=Nc2cccc3cccc(c23)N1 | > 100 | > 100 | 35.9 |  | 28.2 | 33.1 | 32.5 | 31.6 | > 100 | 62.3 |  |  |  |  |  |  |  |  |  | 
7 | COc1ccc2c(c1OC)C(=O)O[C@@H]2[C@H]1c2c(c(Br)c3c(c2OC)OCO3)CCN1C |  | 91.2 | > 100 | > 100 | > 100 | > 100 | > 100 | > 100 | 47.4 | > 100 | 6.47 | 7.09 | 6.78 | > 100 | 21.7 | 8.8 | > 100 | 10.8 | 2.73 | 
8 | O=c1cc(-c2ccc(O)cc2)oc2cc(O)cc(O)c12 | > 100 | > 100 |  | 64.5 | 30.3 | 56.6 | > 100 | 68 | 83.4 | > 100 |  |  |  |  |  |  |  |  |  | 
9 | Cc1cccc(N=C2NC(=O)C(CC(=O)Nc3ccccc3Cl)S2)c1 (configuration not stated) | > 100 |  | > 100 |  | > 100 | > 100 |  | > 100 | > 100 | > 100 |  |  |  |  |  |  |  |  |  | 
10 | COc1ccc(/C=N\O[Si](C)(C)C(C)(C)C)cc1O[Si](C)(C)C(C)(C)C | 48 | 36 | 37.9 |  | 33.3 | 37.6 | 36 | 39 | 30.9 | 37.2 |  |  |  |  |  |  |  |  |  | 
11 | CC(=O)O[C@H]1CC[C@@]2(C)C(=C/C(=N\[N+](=O)[O-])[C@H]3C4CCC([C@H](C)CCCC(C)C)[C@@]4(C)CCC32)C1 (some centres not stated) |  | > 100 | > 100 | > 100 | > 100 | > 100 |  | > 100 | > 100 | > 100 |  |  |  |  |  |  |  |  |  | 
12 | Cc1ccccc1NC(=O)c1cc2ccccc2cc1O |  | 7.88 | 24.1 | 9.39 | 10.4 | 5.94 | > 100 | 85.6 | 24.2 | > 100 | 2.47 | 3.55 | 2.62 | 3.17 | 2.39 | 3.56 | 5.88 | 3.03 | 5.23 | 
13 | CCCC(CCC)C(=O)OCC1(CO)C/C(=C\c2ccc(C(F)(F)F)cc2)C(=O)O1 (configuration not stated) |  | 15.1 | 24.2 | 31.4 | 22.6 |  | 22.5 | 31.7 | 17.7 | 20.6 | 2.34 | 11.8 | 15.1 | 10.5 |  | 7.61 | 17.1 | 2.44 | 0.823 | 
14 | O=C(O)c1cc(=O)c2cc(C(=O)c3cccs3)c(Cl)c(Cl)c2o1 | > 100 | > 100 |  | > 100 | > 100 | > 100 | > 100 | > 100 | > 100 | > 100 |  |  |  |  |  |  |  |  |  | 
15 | Nc1ccc(C2=Nc3ccccc3SC(c3ccccc3O)C2)cc1 (configuration not stated) | 32.5 | > 100 | > 100 | 64.9 | > 100 |  | > 100 | > 100 | > 100 | 51.6 |  |  |  |  |  |  |  |  |  | 
16 | NNC(=S)N/N=C(/C(=O)Nc1ccc([N+](=O)[O-])cc1)c1nc2ccc([N+](=O)[O-])cc2[nH]c1=O | > 100 |  | > 100 | > 100 | > 100 | > 100 | > 100 | > 100 | > 100 | > 100 |  |  |  |  |  |  |  |  |  | 
17 | NC(=O)N/N=C(\CCC(=O)N(Cc1ccccc1)Cc1ccccc1)CC(=O)c1ccc(F)cc1 | > 100 | > 100 | 62.4 |  | > 100 |  | > 100 | > 100 | > 100 | > 100 |  |  |  |  |  |  |  |  |  | 
18 | O=C1/C(=C\c2ccccc2)c2ccccc2N1/N=C\c1ccccc1 | > 100 | > 100 | > 100 |  | > 100 | > 100 | > 100 | > 100 | > 100 | > 100 |  |  |  |  |  |  |  |  |  | 
19 | CC1=NN(C(=O)c2nn(-c3ccc(Cl)cc3)cc2O)C(=O)C1 | > 22 | > 77.6 | > 87.4 | > 86.5 | > 100 |  | > 100 | > 78.9 |  | > 100 | 1.13 | 1.9 | 1.44 | 1.61 |  | 0.734 |  | 0.285 | 0.501 | 0.608
20 | O=C1NN=CN2C(=O)CCC12 (configuration not stated) | > 100 | > 100 | > 100 |  | > 100 | > 100 | > 100 |  | > 100 | > 100 |  |  |  |  |  |  |  |  |  | 

Reference: PubChem BioAssay (NCI)
